“Also recorded” adds a separate entry of the source. Counter-ions that a name gives are not always drawn. Like-named read-outs stand apart in the source and are kept apart here. One block for each compound: values may come before it.
Tests used:
[1] = Degree of drug incorporation into lipid-drug complex (size-exclusion chromatography); assay type: physicochemical; settings: for Degree of Lipid Association (% total): drug associated with lipid membranes, pH 7.4
Protocol: (§1) The mixture was rotor-evaporated under N2 and reduced pressure. Then it was resuspended in sterile phosphate-buffered saline (PBS, pH 7.4), to a final lipid concentration of 50 mM, and homogenized with a probe sonicator until a uniform particle size of about 50 nm to about 80 nm diameter was reached. Sonication is preferably done until sonicated unilamellar vesicles that are stable at their minimum diameter are obtained. […] The size and zeta potential (surface potential at hydrodynamic plane) of the lipid-drug complex was monitored using a Malvern Zetasizer 5000 operating at photon correlation spectroscopy mode and electrophoretic mode, respectively. […] The rest of the preparation procedure remains the same.
The degree of drug incorporation into the lipid-drug complex was determined by subjecting a small fraction of the preparation to size-exclusion chromatography using a Biogel A-0.5 M media (1×10 cm). […] By analyzing the amount of fraction in the lipid-associated complex, and free form with respect to the total amount loaded onto the column, the percentage of drug association was determined. (Lian, T. and Ho, R. J. Y., Recent trend and progress in liposome drug delivery systems; an invited minireview, J Pharm Sci 90:667-680 [2001]). To determine pH-dependent drug dissociation from the lipid-drug complex, the lipid-drug complex (originally prepared in pH 7.4 and free of unincorporated drug) can be incubated at, e.g., pH 7, 6, 5.5, 5, 4, 3.5 for 30 min. Subsequently, the mixture can be subjected to the degree of drug incorporation analysis described above. For animal studies, the drug-lipid complex formulations were further analyzed for sterility and endotoxin contamination. To ensure sterility and prevent underestimation of endotoxin that binds to lipids, the lipid-drug complex preparations were subjected to a blood agar culture test for 7 days at 37° C. for detection of microbial contamination.
Subsequently, the % lipid-association was determined by separating free from lipid-associated drug by size-exclusion column chromatography. Data expressed were means of duplicate preparations for indicated pH value.

[2] = cited from earlier work
[3] = Particle size of lipid-drug complex (photon correlation spectroscopy); assay type: physicochemical; settings: drug associated with lipid membranes, pH 7.4
Protocol: as §1

[4] = Indinavir accumulation in lymph nodes after oral free indinavir; assay type: in vivo, macaques; settings: macaque; for Kp at […]: po, 25 mg/kg; for Kp at […] / Kp at 2 hr / Kp at 3.75 hr: read-out: Lymph node to plasma ratio; for Kp at 2 hr / Kp at 3.75 hr: oral 25 mg/kg; for Kp at 2 hr / concentration at 2 hr: animal 94094; for Kp at 3.75 hr / concentration at 3.75 hr: animal 94096; for concentration at 2 hr / concentration at 3.75 hr: oral 25 mg/kg in solution
HIV-2287 [5] = assay: In situ hybridization of lymph node sections for HIV-2 RNA; assay type: in vivo, Macaca nemestrina; settings: for viral RNA in lymph nodes: 20 mg/kg for 14 days, necropsy day 20
Protocol: Histological analysis of HIV-infected cells: Histologic sections of lymph node were examined using in situ hybridization for HIV-2 gag RNA. Biopsy and postmortem tissues were preserved in fresh 4% deionized paraformaldehyde, embedded in paraffin wax, and sectioned to 5 μm. The sections were deparaffinized, rehydrated in Tris-buffered saline (TBS; 0.1 M Tris [pH 7.5], 0.1 M NaCl), digested with proteinase K (20-40 μg/ml, 37° C., for 30-50 min; Sigma), and treated overnight at 37° C. in a RNase-free DNase-1 solution (Boehringer Mannheim), as described previously.
The sections were then incubated for 5 min at 70° C. followed by 4 h at 42° C. with antisense RNA probes directed either to SW (strain mac251; Zhang Z Q, Schuler T, Cavert W, et al. Reversibility of the pathological changes in the follicular dendritic cell network with treatment of HIV-1 infection. Proc Nati Acad Sci U S A 1999;96 (9):5169-72) or HIV-2 gag-pol (stain 287; gag 2639-1080, pol 3473-2306; Galabru J, Rey-Cuille M A, Hovanessian A G. Nucleotide sequence of the HIV-2 EHO genome, a divergent HIV-2 isolate. AIDS Res Hum Retroviruses 1995;11 [7]:873-4). The RNA probes were constructed by cloning cDNA into transcription vectors under the control of T7 and SP6 RNA polymerase promoters (pGEM, Promega; Madison, Wis.). […] HIV-2 RNA was detected after autoradiographic exposures of 24 and 96 h.
The presence of viral RNA was indicated by deposition of silver grains on top of cells or as aggregates within lymph node germinal centers (FIG. 7) at a frequency statistically greater than background, as determined using Image-Pro® Plus software (Media Cybernetics, Silver Spring, Md.). Nonspecific background was determined in two ways with equivalent results. Silver grains were counted over 100 germinal center cells in tissue sections from mock-inoculated uninfected animals after hybridization to the HIV-2 or SIV antisense probe, or over cells from the tissues of infected monkeys after hybridization to noncomplimentary ‘sense’ RNA probes. […]

HIV-2287 [6] = assay: microbe, parasite or virus in culture; assay type: cell-based, HIV-2
Protocol: (§2) The effective concentrations that produce half the maximum anti-HIV activity (EC50) were determined based on non-linear regression of each set of data, representing the frequency of replication.
After incubating the cells at 37° C. in RPMI 1640 containing 10% fetal calf serum for 4 days (optimum detection time), the presence of virus-infected cells was determined visually by the presence of syncytia and was subsequently confirmed by ELISA detection of the presence of HIV-2 antigen. Experiments were repeated on at least two different days with each determination done in quadruplicate samples, and the data presented in FIG. 3 are the mean % virus-infected cells.

[7] = Example 10; SC 20 mg/kg/day, two animals
[8] = cited from earlier work; remark: listed apart in the source
HIV-2287 [9] = assay type: in vivo, Macaca nemestrina; settings: for CD4+ T cell, After: after therapy; for CD4+ T cell, After / CD4+ T cell, Before: SC 22 mg/kg daily, 14 doses; for CD4+ T cell, Before: before therapy
Protocol: Total RNA was isolated from plasma and lymphoid tissues using a Purescript RNA Isolation Kit (Gentra Systems, Minneapolis, Minn.). Viral RNA was measured using a quantitative, internally-controlled RNA PCR to estimate the number of HIV-2 copies/ml of sample (Watson A, Ranchalis J, Travis B, et al., Plasma viremia in macaques infected with simian immunodeficiency virus: plasma viral load early in infection predicts survival, J Virol 1997;71 (1):284-90) for some of the experiments and real-time quantitative PCR. The two methods have been validated to ensure consistency in estimating viral RNA concentration in plasma and tissues. Briefly, reverse transcription and PCR were performed as described. Because semi-quantitative methods have been well-documented (Watson, et al., 1997), only details on RT-QPCR are described below.
Lymphocyte subset analysis: Fluorescent labeled monoclonal antibodies to lymphocyte surface markers were used to quantitate populations of T cells (CD2+), helper T cells (CD4^+), suppressor T cells (CD8^+), and B cells (CD20^+) in maternal (1 ml) and fetal (150 μl) blood using procedures previously described (Ho R J, Agy M B, Morton W R, et al. Development of a chronically catheterized maternal-fetal macaque model to study in utero mother-to-fetus HIV transmission: a preliminary report. J Med Primatol 1996;25 (3):218-24).
Plasma cholesterol level was monitored to evaluate the effects of cholesterol given as a part of lipid formulation.

HIV-1LAV = assay: Inhibition of HIV-1LAV replication in human PBMCs (p24 antigen); assay type: cell-based; settings: Human immunodeficiency virus 1, PBMC
Protocol: as §2

[10] = SC 10 mg/kg single dose
Protocol: These samples were resuspended in 100 μL, and a 10 μL sample was injected onto an RX-C8 column (21 mm×15 cm column) and eluted isocratically with a mobile phase containing 20 mM ammonium acetate in acetonitrile:water (65:35, v/v) running at 0.38 ml/min. […] Under these conditions, the detection limit was 100 pg, which made it possible to measure drug levels, extract RNA and DNA, isolate cells for detailed analyses of vRNA and vDNA-infected cells in lymph nodes, and fix the tissue for pathological analyses from limited sample size.

[11] = axillary lymph node / plasma, axillary
[12] = inguinal lymph node / plasma, inguinal
[13] = neutral pH, listed as tenofovir

% Associated with lipid-drug nanoparticles: Nelfinavir ([1]; DSPC:mPE-DSPE formulation): 100 ± 9.8%
Degree of Lipid Association (% total) [1]: 100.5 ± 9.8 % total
Size in Diameter [3]: 123 ± 16 nm
Structure (SMILES): Cc1c(O)cccc1C(=O)N[C@@H](CSc1ccccc1)[C@H](O)CN1C[C@H]2CCCC[C@H]2C[C@H]1C(=O)NC(C)(C)C (relative stereo) [Nelfinavir, [3S-[2(2S*, 3S*), 3a,4ab,8ab]]-N-(1,1-dimethylethyl)decahydro-2-[2-hydroxy-3-[(3-hydroxy-2-methylbenzoyl)amino]-4-(phenylthio)butyl]-3-isoquinolinecarboxamide mono-methanesulfonate (salt)]
incorporation into lipid-drug complexes (in words) ([1]; neutral pH): incorporate nearly completely; also recorded: high degree of lipid association
solubility in methanol, ethanol, isopropanol and propylene glycol [2]: freely soluble
solubility in water ([2]; pH<4): slightly soluble

% Associated with lipid-drug nanoparticles: Lopinavir ([1]; DSPC:mPE-DSPE formulation): 100 ± 0.9%
Structure (SMILES): Cc1cccc(C)c1OCC(=O)N[C@@H](Cc1ccccc1)[C@@H](O)C[C@H](Cc1ccccc1)NC(=O)[C@H](C(C)C)N1CCCNC1=O [Lopinavir]

% Associated with lipid-drug nanoparticles: Ritonavir ([1]; DSPC:mPE-DSPE formulation): 100 ± 1.0%
Structure (SMILES): CC(C)c1nc(CN(C)C(=O)N[C@H](C(=O)N[C@@H](Cc2ccccc2)C[C@H](O)[C@H](Cc2ccccc2)NC(=O)OCc2cncs2)C(C)C)cs1 [Ritonavir]

Continued, compound first:

Structure (SMILES): CC(C)(C)NC(=O)[C@@H]1CN(Cc2cccnc2)CCN1C[C@@H](O)C[C@@H](Cc1ccccc1)C(=O)N[C@H]1c2ccccc2C[C@H]1O [Indinavir, N-(2(R)-hydroxy-1(S)-indanyl)-2(R)-phenylmethyl-4-(S)-hydroxy-5-(1-(4-(3-pyridyl-methyl)-2(S)-N′-(t-butylcarboxamido)-piperazinyl))-pentaneamide]
Kp at […] ([4]; axillary lymph node / plasma): 0.01
Kp at 2 hr [4, 11]: 0.02
Kp at 3.75 hr [4, 11]: 0.0035
concentration at 2 hr ([4]; axillary lymph node, axillary): 0.084 ng/mL
concentration at 3.75 hr ([4]; axillary lymph node, axillary): 0.141 ng/mL
Kp at […] ([4]; inguinal lymph node / plasma): 0.03
Kp at 2 hr [4, 12]: 0.01
Kp at 3.75 hr [4, 12]: 0.01
concentration at 2 hr ([4]; inguinal lymph node, inguinal): 0.056 ng/mL
concentration at 3.75 hr ([4]; inguinal lymph node, inguinal): 0.481 ng/mL
concentration at 2 hr ([4]; plasma): 5.2 ng/mL
concentration at 3.75 hr ([4]; plasma): 39.8 ng/mL
HIV-2 RNA in lymph node germinal centers (in words) (HIV-2287 [5]; axillary and mesenteric lymph nodes): showed aggregates of HIV-RNA in lymph node germinal centers
viral RNA in lymph nodes (HIV-2287 [5]; macaque 215): 13,290±1,450 gag-pol RNA copies/50× field
viral RNA in lymph nodes (HIV-2287 [5]; macaque 283): 8,134±890 gag-pol RNA copies/50× field
EC50 (HIV-2287 [6]; Human immunodeficiency virus 2, CEM174, 96 h, read-out: EC50 (50% effective inhibitory concentration)): 50 to 80 nM
EC50 (HIV-2287 [6]; Human immunodeficiency virus 2, CEM174, read-out: in vitro ED50 against HIV-2287): 60 to 80 nM
time by which drug levels subsided below detectable levels [7]: 4 to 5 h
LogP (lipophilicity) ([8]; pH 3.5): 0
LogP (lipophilicity) ([8]; pH 5): 1.8
LogP (lipophilicity) ([8]; pH 7): 3
plasma virus load (HIV-2287 [9]; Example 10: SC 20 mg/kg/day for 14 days, 30 weeks post-infection): did not exhibit a significant virus load reduction
CD4+ T cells after two weeks of treatment (in words) (HIV-2287 [9]; four HIV-2287-infected animals, Table 5): the same pattern was not observed
CD4+ T cell, After (HIV-2287 [9]; macaque 215): 1473 per μL
CD4+ T cell, Before (HIV-2287 [9]; macaque 215): 1946 per μL
CD4+ T cell, After (HIV-2287 [9]; macaque 283): 1051 per μL
CD4+ T cell, Before (HIV-2287 [9]; macaque 283): 1650 per μL
EC50 (HIV-1LAV; CD8-depleted human PBMCs, HIV-1 p24 antigen): > 150 nM
inhibition at 15 µM (HIV-1LAV; at 15 μM): < 100%
% Associated with lipid-drug nanoparticles: Indinavir ([1]; DSPC:mPE-DSPE formulation): 97.5 ± 2.50%
Degree of Lipid Association (% total) [1]: 97.5 ± 2.5 % total
incorporation into lipid-drug complexes (in words) ([1]; neutral pH): completely or nearly completely; also recorded: incorporate nearly completely
indinavir preparation incorporated in lipid-indinavir complex ([1]; neutral pH, lipid-to-drug molar ratio about 5:1 to about 10:1): 80-100%
drug incorporated into the lipid bilayer of liposomes ([1]; pH 4, lipid-to-drug ratio 5:1 (m/m)): < 30%
drug associated with liposome ([1]; pH 7.4, lipid-to-drug ratio 5:1 (m/m)): 85-95%
Size in Diameter [3]: 69 ± 7 nm
time of plasma drug concentration peak [10]: 0.5 to 1 h

Structure (SMILES): CC(C)(C)NC(=O)[C@@H]1C[C@@H]2CCCC[C@@H]2CN1C[C@@H](O)[C@H](Cc1ccccc1)NC(=O)[C@H](CC(N)=O)NC(=O)c1ccc2ccccc2n1 [Saquinavir, N-tert-butyl-decahydro-2-[2(R)-hydroxy-4-phenyl-3(S)-[[N-(2-quinolylcarbonyl)-L-asparaginyl]-amino]butyl]-(4aS,8aS)-isoquinoline-3 (S)-carboxamide]
% Associated with lipid-drug nanoparticles: Saquinavir ([1]; DSPC:mPE-DSPE formulation): 98.9 ± 7.5%
Degree of Lipid Association (% total) [1]: 98.8 ± 7.5 % total
incorporation into lipid-drug complexes (in words) ([1]; neutral pH): incorporate nearly completely; also recorded: high degree of lipid association
Size in Diameter [3]: 159 ± 36 nm

Structure (SMILES): C[C@H](Cn1cnc2c(N)ncnc21)OCP(=O)(O)O [Tenofovir]
incorporation into lipid-drug complexes (in words) ([1]; neutral pH): quite low efficiency
incorporation into lipid-drug complexes (in words) [1, 13]: much lower efficiency
solubility in water ([2]; neutral pH): soluble in water
solubility in water [2, 13]: quite soluble

Structure (SMILES): CC(C)OC(=O)OCOP(=O)(CO[C@H](C)Cn1cnc2c(N)ncnc21)OCOC(=O)OC(C)C.O=C(O)/C=C/C(=O)O [Viread ®, 9-[(R)-2-[[bis[[(isopropoxycarbonyl)oxy]methoxy]phosphinyl]methoxy]propyl]adenine fumarate (1:1)]
Degree of Lipid Association (% total) [1]: 4.2 ± 0.7 % total
Size in Diameter [3]: 60 ± 10 nm

Structure (SMILES): O=C(O)CN(CC(=O)O)Cc1cc2c(cc1O)Oc1cc(O)c(CN(CC(=O)O)CC(=O)O)cc1C21OC(=O)c2ccccc21 [calcein]
incorporation into lipid-drug complexes (in words) ([1]; neutral pH): completely or nearly completely
